Where two headings read alike, the source gives them in different places.
Tests used:
[1] = molecular target: T1, α-1b (hamster) adrenoreceptor (Mesocricetus auratus, UniProt P18841); assay: biochemical; conditions: read-out: Radioligand Binding Ki, 1b (Hamster)
T1 sequence (P18841 1-515): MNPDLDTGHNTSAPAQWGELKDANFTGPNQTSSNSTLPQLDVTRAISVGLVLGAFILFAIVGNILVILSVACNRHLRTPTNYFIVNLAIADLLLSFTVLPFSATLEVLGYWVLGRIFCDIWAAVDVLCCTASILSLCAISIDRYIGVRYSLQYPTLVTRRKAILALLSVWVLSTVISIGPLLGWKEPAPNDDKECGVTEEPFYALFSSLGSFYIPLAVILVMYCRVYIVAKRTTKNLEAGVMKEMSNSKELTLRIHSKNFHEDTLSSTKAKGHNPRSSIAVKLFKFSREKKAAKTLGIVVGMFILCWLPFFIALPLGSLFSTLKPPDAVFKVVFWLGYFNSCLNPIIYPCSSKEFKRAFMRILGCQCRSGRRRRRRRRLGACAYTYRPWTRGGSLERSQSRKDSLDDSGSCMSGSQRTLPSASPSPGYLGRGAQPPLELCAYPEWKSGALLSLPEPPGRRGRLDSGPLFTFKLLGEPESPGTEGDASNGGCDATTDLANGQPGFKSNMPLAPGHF
Experimental: (§1) In the following, for purposes of discussing alpha-1 adrenoreceptor subtypes, the IUPHAR convention of using lower case letters to define molecular clones and upper case letters to indicate pharmacologically defined adrenoreceptors has been followed. Moreover, the newly recommended nomenclature for alpha-1 (α1a, α1b, α1d) has been used.
(§2) Additionally, binding affinity against the pharmacologically defined α-1A adrenoreceptor (rat submaxillary gland) was measured.
(§3) The cDNA clones encoding the α-1 adrenoreceptors (α-1a, α-1b, and α-1d) were obtained from TULCO (Triangle Universities Licensing Consortium, Research Triangle Park, NC) and inserted into the eukaryotic expression vector SnaB30. In this vector, expression of the adrenoreceptor gene is under the transcriptional control of an SV40 early promoter. Positive drug selection is provided by a neomycin-resistance gene. Mouse fibroblast cells (LTK) were transfected with the α1 expression plasmids and grown in Dulbecco's modified Eagle's medium (DMEM) containing 10% fetal calf serum and 30 μM G418. Stable G418-resistant parental lines were generated, with successful expression of adrenoreceptor protein monitored using radioligand binding techniques. Stable single cell clones derived from the parental lines were screened in adrenoreceptor binding assays to identify clones having high adrenoreceptor density. […]

[2] = molecular target: T2, α-1B adrenoreceptor (rat spleen) (Rattus norvegicus, UniProt P15823); assay: Functional antagonism: inhibition of phenylephrine-induced contraction of rat spleen; parameters: species or system tissue; conditions: for more potent effect on spleen smooth muscle: rat spleen versus the other tissues, in words
T2 construct: contraction of rat spleen; from tissue; host or cells: rat spleen
T2 sequence (P15823 1-515): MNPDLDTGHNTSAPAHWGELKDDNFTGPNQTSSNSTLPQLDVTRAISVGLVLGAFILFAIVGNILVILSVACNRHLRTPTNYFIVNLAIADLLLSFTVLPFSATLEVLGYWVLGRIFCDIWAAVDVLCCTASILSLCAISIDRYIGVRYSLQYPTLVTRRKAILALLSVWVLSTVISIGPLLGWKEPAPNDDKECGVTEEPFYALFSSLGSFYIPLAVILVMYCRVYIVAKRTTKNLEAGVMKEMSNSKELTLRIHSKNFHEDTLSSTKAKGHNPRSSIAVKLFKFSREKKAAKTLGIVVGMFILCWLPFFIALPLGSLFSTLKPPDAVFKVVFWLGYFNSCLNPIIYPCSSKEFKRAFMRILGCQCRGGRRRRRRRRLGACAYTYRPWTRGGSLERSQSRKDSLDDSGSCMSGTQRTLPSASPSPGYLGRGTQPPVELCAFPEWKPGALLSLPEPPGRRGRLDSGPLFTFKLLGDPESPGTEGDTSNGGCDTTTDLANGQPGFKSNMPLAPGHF
From the text: (§4) Functional assays indicative of pharmacologically defined α-1 adrenoreceptors were used to further characterize compounds. […] For each of these models, agonist dose response curves were repeated against increasing concentrations of test agent to derive a Schild plot [log ([…]) against log (molarity of test agent)] to determine the pA2.

α-1 adrenoreceptors = conditions: cited from earlier work; for urinary flow rates and subjective symptom scores, longer term studies: BPH patients
[3] = molecular target: T3, α-1A adrenoreceptor (rat submaxillary gland) (Rattus norvegicus, UniProt P43140); assay: Radioligand binding, [3H]-prazosin displacement, α-1A (rat submaxillary gland); conditions: [3H]prazosin 0.2 nM
T3 construct: Rat submaxillary glands were used for α-1A adrenoreceptors; from tissue; host or cells: rat submaxillary gland membranes
T3 sequence (P43140 1-466): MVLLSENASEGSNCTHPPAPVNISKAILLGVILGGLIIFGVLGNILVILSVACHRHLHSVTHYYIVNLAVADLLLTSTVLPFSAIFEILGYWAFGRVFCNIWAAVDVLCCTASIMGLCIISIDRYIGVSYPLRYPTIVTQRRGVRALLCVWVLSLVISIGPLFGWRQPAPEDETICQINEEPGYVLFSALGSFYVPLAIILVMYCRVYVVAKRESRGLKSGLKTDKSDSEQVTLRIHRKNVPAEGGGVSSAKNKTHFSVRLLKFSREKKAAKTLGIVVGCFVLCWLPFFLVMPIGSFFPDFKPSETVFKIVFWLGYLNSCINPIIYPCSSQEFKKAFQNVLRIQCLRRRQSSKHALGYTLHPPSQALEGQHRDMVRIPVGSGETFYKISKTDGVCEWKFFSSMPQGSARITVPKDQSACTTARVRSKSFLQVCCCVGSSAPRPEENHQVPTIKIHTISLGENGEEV
Experimental: as §1, §2
Cells were detached from the roller bottles by incubating for 15 minutes at 37° C. in a Tris-EDTA solution (10 mM Tris, 100 mM NaCl, 1 mM EDTA, pH=7.4). The cell suspension from each roller bottle was decanted into tared centrifuge tubes and kept on ice. An aliquot of each cell suspension was generally taken for cell counting. […] The supernatant was decanted and the pellet weighed to determine the wet weight of cells. Cells were washed a final time in 40 vol 5 mM Tris-HCl, 5 mM EDTA, pH=7.7, and centrifuged at 40,000×G for 10 minutes. Cells were homogenized in 10 mL of 50 mM Tris-HCl, 5 mM EDTA (pH=7.4) and diluted to 40 mL/tube. Homogenates were centrifuged at 40,000×G for 10 minutes. […]
Receptor binding assays for α-1 adrenoreceptors were performed essentially as described by Greengrass and Bremner (Eur. J. Pharmacol. 55: 323-326 (1979)). […] Radioactivity was determined by standard liquid scintillation techniques.

[4] = molecular target: T4, α-1a (bovine) adrenoreceptor (Bos taurus, UniProt P18130); assay: Radioligand binding, [3H]-prazosin displacement, cloned α-1a expressed in LTK cells; conditions: cloned bovine α-1a, LTK cell membranes, [3H]prazosin 0.2 nM
T4 construct: expressed in transfected cells; host or cells: mouse fibroblast LTK cells, vector SnaB30, cDNA from TULCO
T4 sequence (P18130 1-466): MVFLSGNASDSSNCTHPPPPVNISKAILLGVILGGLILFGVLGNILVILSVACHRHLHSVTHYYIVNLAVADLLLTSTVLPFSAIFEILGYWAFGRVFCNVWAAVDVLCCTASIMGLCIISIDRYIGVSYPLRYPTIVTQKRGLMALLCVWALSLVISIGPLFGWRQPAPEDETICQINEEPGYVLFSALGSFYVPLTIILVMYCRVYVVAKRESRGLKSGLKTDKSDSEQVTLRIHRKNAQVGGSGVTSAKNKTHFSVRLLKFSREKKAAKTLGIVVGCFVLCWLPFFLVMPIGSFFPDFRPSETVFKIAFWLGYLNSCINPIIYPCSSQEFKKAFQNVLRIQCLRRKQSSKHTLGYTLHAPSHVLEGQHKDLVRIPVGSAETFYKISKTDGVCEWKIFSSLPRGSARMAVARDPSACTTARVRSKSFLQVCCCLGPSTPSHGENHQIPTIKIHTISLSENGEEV
Experimental: as §1, §2, §3

[5] = molecular target: T5, α-1A adrenoreceptor (rat vas deferens) (Rattus norvegicus, UniProt P43140); assay: Functional antagonism: inhibition of phenylephrine-induced contraction of rat vas deferens; parameters: species or system tissue; conditions: Schild
T5 construct: contraction of rat vas deferens; from tissue; host or cells: rat vas deferens
T5 sequence (P43140 1-466): T3 sequence (P43140 1-466)
From the text: as §4

Row | Structure (SMILES) | more potent effect on spleen smooth muscle [2] | urinary flow rates and subjective symptom scores, longer term studies (α-1 adrenoreceptors) | also measured
1 | COc1ccc2c(c1)[C@@H]1CN(CCCn3c(=O)[nH]c4c(sc5ncccc54)c3=O)C[C@@H]1CO2 (racemic) [Example 77, 3-[3-((±)-cis-8-Methoxy-1,2,3,3a,4,9b-hexahydro-[1]-benzopyrano[3,4-c]pyrrol-2-yl)propyl]-pyrido[3',2':4,5]thieno[3,2-d]pyrimidine-2,4(1H,3H)-dione] |  |  | Ki [1]: 10000 nM
2 | COc1cc2nc(N3CCN(C(=O)C4COc5ccccc5O4)CC3)nc(N)c2cc1OC (centres unmarked) [Doxazosin, doxazosin] | a more potent effect on spleen smooth muscle by approximately an order of magnitude | significant improvements in urinary flow rates and subjective symptom scores | 
3 | COc1cccc2c1[C@@H]1CN(CCCCn3c(=O)[nH]c4c(sc5nc(Cl)ccc54)c3=O)C[C@@H]1CO2 [Example 32, 3-[4-((3aR,9bR)-cis-9-Methoxy-1,2,3,3a,4,9b-hexahydro-[1]-benzopyrano[3,4-c]pyrrol-2-yl)butyl]-7-chloro-pyrido[3',2':4,5]thieno[3,2-d]pyrimidine-2,4(1H,3H)-dione] |  |  | In Vitro Characterization (pA2), Rat Spleen ([2]; rat spleen, phenylephrine, Schild): 7.24; Ki [3]: 1.01 nM; Ki [4]: 0.093 nM; In Vitro Characterization (pA2), Rat Vas [5]: 9.46; Ki ([1]; cloned hamster α-1b, LTK cell membranes, [3H]prazosin 0.2 nM): 9.95 nM
4 | COc1cc2nc(N3CCN(C(=O)c4ccco4)CC3)nc(N)c2cc1OC [Prazosin, prazosin] | a more potent effect on spleen smooth muscle by approximately an order of magnitude | significant improvements in urinary flow rates and subjective symptom scores | urinary incontinence during antihypertensive treatment (α-1 adrenoreceptors; women, antihypertensive treatment): urinary incontinence developed in women
5 | COc1cc2nc(N3CCN(C(=O)C4CCCO4)CC3)nc(N)c2cc1OC (centres unmarked) [Terazosin, terazosin] | a more potent effect on spleen smooth muscle by approximately an order of magnitude | significant improvements in urinary flow rates and subjective symptom scores | 
6 | O=C(NC1CCN(CCc2c[nH]c3ccccc23)CC1)c1ccccc1 [indoramin] |  | significant improvements in urinary flow rates and subjective symptom scores | 
